{"source": "patent US20230346889A9", "about": "“TREATMENT OF ACUTE HEART FAILURE” (AnaCardio R&D AB, priority 2019, published 2023)", "key": {"[1]": {"system": "intracellular cAMP concentration", "assay": "cAMP measurement in cardiomyocytes (direct immunoassay kit)", "format": "cell-based, mouse", "settings": "vs placebo", "description": "The intracellular cAMP concentration was measured using the cAMP direct Immunoassay kit (Abcam ab65355). Briefly, frozen cardiomyocytes pellets from groups described above (Placebo, Ghrelin, D-Lys 3 GHS-R1a+Ghrelin) were homogenized on ice using volume of 0.1 M HCl to obtain a protein concentration of 1 mg/ml. Acetylated supernatants of samples were used for the incubation with antibodies in ELISA plates according to the kit manufacturer. Finally, the optic density absorbance at 450 nm was analyzed using a microplate reader (Biotek, Synergy 2). The concentration of cAMP was normalized, dividing the resulting readout (pmol/ml) by the total protein concentration (mg/ml) for each sample. The experiments were conducted by an operator blinded regarding the treatment of the animals."}, "[2]": {"system": "patients with advanced CHF and reduced EF", "assay": "Trial serum and plasma biomarkers", "format": "in vivo, human", "description": "Blood samples were collected in 1) morning fasting state baseline, 2) after standardized breakfast prior to intervention, 3) after 30 min infusion, 4) after 60 min infusion and 5) after 120 min infusion, 6) 30 min after completed infusion and 7) at follow-up 2-5 days later (FIG. 2). Blood was collected in ethylenediaminetetraacetic acid (EDTA) and serum tubes and immediately centrifuged and plasma and serum was aliquoted and stored in −70° C. until analysis.\nCreatinine clearance was calculated according to the Cockcroft-Gault equation; ([140-age] * weight in kg*1.23)/creatinine*0.85 (if […]). Renal function was measured by creatinine and cystatin-C at Karolinska University Hospital core laboratory. NT-proBNP was analyzed by proBNPII (Roche Diagnostics, Bromma, Sweden). Plasma glucose measurements were from EDTA-containing whole venous blood tubes and analyzed with a photometric point-of-care technique, the HemoCue® Glucose 201 RT (Ängelholm, Sweden). Troponin T was analyzed in the Karolinska University Hospital core laboratory."}, "[3]": {"settings": "Baseline, bracketed range in line below"}}, "note": "Marks after values point to notes of the source that are not given here.", "data": [{"smiles": "CCCCCCCC(=O)OC[C@H](NC(=O)[C@H](CO)NC(=O)CN)C(=O)N[C@@H](Cc1ccccc1)C(=O)N[C@@H](CC(C)C)C(=O)N[C@@H](CO)C(=O)N1CCC[C@H]1C(=O)N[C@@H](CCC(=O)O)C(=O)N[C@@H](Cc1cnc[nH]1)C(=O)N[C@@H](CCC(N)=O)C(=O)N[C@@H](CCCNC(=N)N)C(=O)N[C@H](C(=O)N[C@@H](CCC(N)=O)C(=O)N[C@@H](CCC(N)=O)C(=O)N[C@@H](CCCNC(=N)N)C(=O)N[C@@H](CCCCN)C(=O)N[C@@H](CCC(=O)O)C(=O)N[C@@H](CO)C(=O)N[C@@H](CCCCN)C(=O)N[C@@H](CCCCN)C(=O)N1CCC[C@H]1C(=O)N1CCC[C@H]1C(=O)N[C@@H](C)C(=O)N[C@@H](CCCCN)C(=O)N[C@@H](CC(C)C)C(=O)N[C@@H](CCC(N)=O)C(=O)N1CCC[C@H]1C(=O)N[C@@H](CCCNC(=N)N)C(=O)O)C(C)C", "note": "[Ghrelin]", "values": [{"measurement": "cAMP concentration in cardiomyocytes", "setting": "[1]", "result": "reduces"}, {"measurement": "cAMP concentration in cardiomyocytes", "setting": "[1]; listed as ghrelin", "result": "lower compared to placebo"}, {"measurement": "ALAT", "setting": "[2]; 2-5 days FU", "result": 0.31, "unit": "ukat/L"}, {"measurement": "ASAT", "setting": "[2]; 2-5 days FU", "result": 0.42, "unit": "ukat/L"}, {"measurement": "Cystatin C", "setting": "[2]; 2-5 days FU", "result": "1.59 ± 0.52* mg/L"}, {"measurement": "GT", "setting": "[2]; 2-5 days FU", "result": 0.83, "unit": "ukat/L"}, {"measurement": "Haematocrit", "setting": "[2]; 2-5 days FU", "result": "41 ± 5", "unit": "%"}, {"measurement": "INR among non-warfarin treated", "setting": "[2]; 2-5 days FU", "result": 1.0}, {"measurement": "INR among warfarin treated", "setting": "[2]; 2-5 days FU", "result": 2.6}, {"measurement": "Insulin (non-fasting)", "setting": "[2]; 2-5 days FU", "result": 30, "unit": "mlE/L"}, {"measurement": "NT-proBNP", "setting": "[2]; 2-5 days FU", "result": "2450* ng/L"}, {"measurement": "Potassium", "setting": "[2]; 2-5 days FU", "result": "4.3 ± 0.4", "unit": "mmol/L"}, {"measurement": "Sodium", "setting": "[2]; 2-5 days FU", "result": "138 ± 12", "unit": "mmol/L"}, {"measurement": "Triglycerides", "setting": "[2]; 2-5 days FU", "result": 1.6, "unit": "mmol/L"}, {"measurement": "Troponin T", "setting": "[2]; 2-5 days FU", "result": "31 ± 38", "unit": "ng/L"}, {"measurement": "White blood cell count", "setting": "[2]; 2-5 days FU", "result": "7.4 ± 2.0 109/L"}, {"measurement": "hsCRP", "setting": "[2]; 2-5 days FU", "result": 3.0, "unit": "mg/L"}, {"measurement": "NT-proBNP", "setting": "[2]; 2-5 days after infusion", "result": "remained elevated"}, {"measurement": "ALAT", "setting": "[2]; 30′ after infusion", "result": 0.32, "unit": "ukat/L"}, {"measurement": "ASAT", "setting": "[2]; 30′ after infusion", "result": 0.43, "unit": "ukat/L"}, {"measurement": "Cystatin C", "setting": "[2]; 30′ after infusion", "result": "1.54 ± 0.41", "unit": "mg/L"}, {"measurement": "GT", "setting": "[2]; 30′ after infusion", "result": 0.82, "unit": "ukat/L"}, {"measurement": "NT-proBNP", "setting": "[2]; 30′ after infusion", "result": 2820, "unit": "ng/L"}, {"measurement": "Troponin T", "setting": "[2]; 30′ after infusion", "result": "21 ± 10", "unit": "ng/L"}, {"measurement": "hsCRP", "setting": "[2]; 30′ after infusion", "result": 3.5, "unit": "mg/L"}, {"measurement": "Cystatin C", "setting": "[2]; Baseline", "result": "1.45 ± 0.44", "unit": "mg/L"}, {"measurement": "Troponin T", "setting": "[2]; Baseline", "result": "21 ± 9", "unit": "ng/L"}, {"measurement": "ALAT", "setting": "[2]; Baseline (Table 12)", "result": 0.31, "unit": "ukat/L"}, {"measurement": "ASAT", "setting": "[2]; Baseline (Table 12)", "result": 0.41, "unit": "ukat/L"}, {"measurement": "Cystatin C", "setting": "[2]; Baseline (Table 12)", "result": "1.45 ± 10.44", "unit": "mg/L"}, {"measurement": "GT", "setting": "[2]; Baseline (Table 12)", "result": 0.77, "unit": "ukat/L"}, {"measurement": "Haematocrit", "setting": "[2]; Baseline (Table 12)", "result": "40 ± 4", "unit": "%"}, {"measurement": "INR among non-warfarin treated", "setting": "[2]; Baseline (Table 12)", "result": 1.1}, {"measurement": "INR among warfarin treated", "setting": "[2]; Baseline (Table 12)", "result": 2.2}, {"measurement": "Insulin (non-fasting)", "setting": "[2]; Baseline (Table 12)", "result": 36, "unit": "mlE/L"}, {"measurement": "NT-proBNP", "setting": "[2]; Baseline (Table 12)", "result": 2080, "unit": "ng/L"}, {"measurement": "Sodium", "setting": "[2]; Baseline (Table 12)", "result": "139 ± 13", "unit": "mmol/L"}, {"measurement": "Triglycerides", "setting": "[2]; Baseline (Table 12)", "result": 1.4, "unit": "mmol/L"}, {"measurement": "Troponin T", "setting": "[2]; Baseline (Table 12)", "result": "21 ± 10", "unit": "ng/L"}, {"measurement": "White blood cell count", "setting": "[2]; Baseline (Table 12)", "result": "7.4 ± 1.9 109/L"}, {"measurement": "hsCRP", "setting": "[2]; Baseline (Table 12)", "result": 2.7, "unit": "mg/L"}, {"measurement": "ALAT", "setting": "[2]; [3]", "result": 0.31, "unit": "ukat/L"}, {"measurement": "ASAT", "setting": "[2]; [3]", "result": 0.41, "unit": "ukat/L"}, {"measurement": "GT", "setting": "[2]; [3]", "result": 0.77, "unit": "ukat/L"}, {"measurement": "hsCRP", "setting": "[2]; [3]", "result": 2.7, "unit": "mg/L"}, {"measurement": "NT-proBNP", "setting": "[2]; Baseline, bracketed range in lines below", "result": 2080, "unit": "ng/L"}, {"measurement": "ALAT", "setting": "[2]; Infusion + 30′", "result": 0.31, "unit": "ukat/L"}, {"measurement": "ASAT", "setting": "[2]; Infusion + 30′", "result": 0.40, "unit": "ukat/L"}, {"measurement": "Cystatin C", "setting": "[2]; Infusion + 30′", "result": "1.46 ± 0.44", "unit": "mg/L"}, {"measurement": "GT", "setting": "[2]; Infusion + 30′", "result": 0.78, "unit": "ukat/L"}, {"measurement": "NT-proBNP", "setting": "[2]; Infusion + 30′", "result": 2220, "unit": "ng/L"}, {"measurement": "Troponin T", "setting": "[2]; Infusion + 30′", "result": "21 ± 9", "unit": "ng/L"}, {"measurement": "hsCRP", "setting": "[2]; Infusion + 30′", "result": 3.0, "unit": "mg/L"}, {"measurement": "ALAT", "setting": "[2]; Infusion + 60′", "result": 0.31, "unit": "ukat/L"}, {"measurement": "ASAT", "setting": "[2]; Infusion + 60′", "result": 0.44, "unit": "ukat/L"}, {"measurement": "Cystatin C", "setting": "[2]; Infusion + 60′", "result": "1.55 ± 0.47* mg/L"}, {"measurement": "GT", "setting": "[2]; Infusion + 60′", "result": 0.79, "unit": "ukat/L"}, {"measurement": "NT-proBNP", "setting": "[2]; Infusion + 60′", "result": "2340* ng/L"}, {"measurement": "Troponin T", "setting": "[2]; Infusion + 60′", "result": "22 ± 10", "unit": "ng/L"}, {"measurement": "hsCRP", "setting": "[2]; Infusion + 60′", "result": 3.0, "unit": "mg/L"}, {"measurement": "ALAT", "setting": "[2]; Infusion + 120′", "result": 0.31, "unit": "ukat/L"}, {"measurement": "ASAT", "setting": "[2]; Infusion + 120′", "result": 0.41, "unit": "ukat/L"}, {"measurement": "Cystatin C", "setting": "[2]; Infusion + 120′", "result": "1.57 ± 0.43* mg/L"}, {"measurement": "GT", "setting": "[2]; Infusion + 120′", "result": 0.80, "unit": "ukat/L"}, {"measurement": "NT-proBNP", "setting": "[2]; Infusion + 120′", "result": "2630* ng/L"}, {"measurement": "Troponin T", "setting": "[2]; Infusion + 120′", "result": "21 ± 10", "unit": "ng/L"}, {"measurement": "hsCRP", "setting": "[2]; Infusion + 120′", "result": 3.3, "unit": "mg/L"}, {"measurement": "Cystatin C", "setting": "[2]; during infusion", "result": "increased"}, {"measurement": "NT-proBNP", "setting": "[2]; during infusion", "result": "increased"}]}]}
